# Source: ChEMBL document CHEMBL6182916, “Unexpected Discovery of a Novel Triphenylphosphonium Alkylalcohol That Triggers Cancer Cell Death via Mitophagy and Ferroptosis” (J Med Chem, 2025)
# The source made the active and inactive calls. No cut-off for these calls is given here.
# What was measured:
# HeLa [1] = assay: Induction of mitophagy in human HeLa cells assessed as colocalization of mitochondria and lysosomes at 40 uM by mitoGFP staining based confocal microscopy analysis; assay type: functional, cell-based
# HeLa [2] = assay: Induction of mitophagy in human HeLa cells assessed as colocalization of mitochondria and lysosomes at 40 uM by lysotracker red staining based confocal microscopy analysis; assay type: functional, cell-based
# HeLa [3] = assay: Induction of mitophagy in human HeLa cells harbouring mCherry-GFP tag assessed as reduction in GFP fluorescence at 40 uM incubated for 24 hrs by confocal microscopy analysis; assay type: functional, cell-based
# HeLa [4] = assay: Induction of mitophagy in human HeLa cells harbouring mCherry-GFP tag assessed as visible mCherry fluorescence at 40 uM incubated for 24 hrs by confocal microscopy analysis; assay type: functional, cell-based
# [5] = target: T1, Heat shock protein 75 kDa, mitochondrial (Homo sapiens) (UniProt Q12931); assay: Inhibition of human TRAP1 assessed as fold increase in ATPase activity at 20 uM
# T1 sequence (whole entry): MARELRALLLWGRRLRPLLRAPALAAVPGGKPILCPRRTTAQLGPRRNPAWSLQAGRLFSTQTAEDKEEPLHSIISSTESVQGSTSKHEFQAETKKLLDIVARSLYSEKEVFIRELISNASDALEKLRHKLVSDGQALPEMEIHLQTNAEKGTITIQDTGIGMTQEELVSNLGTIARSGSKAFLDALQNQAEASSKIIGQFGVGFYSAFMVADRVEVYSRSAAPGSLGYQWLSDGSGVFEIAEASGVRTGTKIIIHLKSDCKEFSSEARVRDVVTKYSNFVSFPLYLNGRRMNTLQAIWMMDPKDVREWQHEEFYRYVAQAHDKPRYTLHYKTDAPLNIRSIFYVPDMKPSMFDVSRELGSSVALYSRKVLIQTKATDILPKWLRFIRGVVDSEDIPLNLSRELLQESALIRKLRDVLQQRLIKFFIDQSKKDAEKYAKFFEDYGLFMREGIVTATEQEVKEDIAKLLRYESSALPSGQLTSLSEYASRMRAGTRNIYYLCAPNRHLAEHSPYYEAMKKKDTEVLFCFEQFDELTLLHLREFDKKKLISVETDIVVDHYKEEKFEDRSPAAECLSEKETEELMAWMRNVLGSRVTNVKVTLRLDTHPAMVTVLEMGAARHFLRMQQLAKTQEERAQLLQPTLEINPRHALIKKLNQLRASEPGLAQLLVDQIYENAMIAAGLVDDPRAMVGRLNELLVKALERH
# [6] = Drug localization in mitochondria of human HCC827 cells assessed as increase in green fluorescence by measuring pearson correlation coefficient at 10 uM incubated for 10 mins by mito-tracker green dye based confocal scanning microscopy analysis; assay type: ADME; settings: hcc827, 10 min
# [7] = Drug metabolism in human HCC827 cells mitochondria assessed as 2-(2-(4-hydroxystyryl)-4H-chromen-4-ylidene)malononitrile hydrolysis at 10 uM incubated for 5 mins by fluorescence emission spectroscopy analysis; assay type: ADME; settings: hcc827, 5 min
# [8] = Drug uptake in human HCC827 cells mitochondria assessed as increase in fluorescence intensity at 10 uM by fluorescence emission spectroscopy analysis; assay type: ADME; settings: hcc827, 10 µM
# MCF7 = assay: Antiproliferative activity against human MCF7 cells assessed as inhibition of cell growth measured after 72 hrs by MTT assay; assay type: functional, cell-based; settings: MCF7, 72 h
# NCI-H1299 = assay: Antiproliferative activity against human NCI-H1299 cells assessed as inhibition of cell growth measured after 72 hrs by MTT assay; assay type: functional, cell-based; settings: NCI-H1299, 72 h
# HCC827 [9] = assay: Induction of apoptosis in human HCC827 cells assessed as necrotic cells at 1 uM measured after 48 hrs by annexin V and PI staining based flow cytometry analysis (reference value: 1.18%); assay type: functional
# [10] = Antiproliferative activity against human BEAS-2B cells assessed as inhibition of cell growth measured after 72 hrs by MTT assay; assay type: toxicity, cell-based
# [11] = Antiproliferative activity against human Osimertinib-resistant HCC827 cell assessed as inhibition of cell growth measured after 72 hrs by MTT assay; assay type: functional, cell-based
# HCC827 [12] = assay: Induction of cell cycle arrest in human HCC827 cells assessed as accumulation of cells at S phase at 0.4 uM incubated for 24 hrs by PI staining based flow cytometry analysis (reference value: 26.41%); assay type: functional
# [13] = test system: Osimertinib-resistant NCI-H1975 cell; assay: Antiproliferative activity against human Osimertinib-resistant NCI-H1975 cell assessed as inhibition of cell growth measured after 72 hrs by MTT assay; assay type: functional, cell-based
# NCI-H1650 = assay: Antiproliferative activity against human NCI-H1650 cells assessed as inhibition of cell growth measured after 72 hrs by MTT assay; assay type: functional, cell-based; settings: NCI-H1650, 72 h
# A-375 [14] = assay: Anticancer activity against human A-375 cells assessed as inhibition of cell growth by MTT assay; assay type: functional, cell-based
# Mitochondrial membrane = assay: Induction of mitochondrial membrane depolarization in human HCC827 cells assessed as increase in J-monomer ratio at 0.5 uM incubated for 4 hrs by JC-1 staining based flow cytometric analysis; assay type: cell membranes
# HCC827 [15] = assay: Induction of apoptosis in human HCC827 cells assessed as viable cells at 1.0 uM measured after 48 hrs by annexin V and PI staining based flow cytometry analysis (reference value: 96.74%); assay type: functional; settings: read-out: Activity
# HCC827 [16] = assay: Induction of cell cycle arrest in human HCC827 cells assessed as accumulation of cells at G1 phase at 0.4 uM incubated for 24 hrs by PI staining based flow cytometry analysis (reference value: 66.44%); assay type: functional
# HCT-116 = assay: Antiproliferative activity against human HCT-116 cells assessed as inhibition of cell growth measured after 72 hrs by MTT assay; assay type: functional, cell-based; settings: HCT-116, 72 h
# A-375 [17] = assay: Antiproliferative activity against human A-375 cells assessed as inhibition of cell growth measured after 72 hrs by MTT assay; assay type: functional, cell-based; settings: A-375, 72 h
# HCC827 [18] = assay: Induction of cell cycle arrest in human HCC827 cells assessed as accumulation of cells at G2 phase at 0.4 uM incubated for 24 hrs by PI staining based flow cytometry analysis (reference value: 7.15%); assay type: functional
# [19] = Antiproliferative activity against human HUVEC cells assessed as inhibition of cell growth measured after 72 hrs by MTT assay; assay type: toxicity, cell-based
# NCI-H460 = assay: Antiproliferative activity against human NCI-H460 cells assessed as inhibition of cell growth measured after 72 hrs by MTT assay; assay type: functional, cell-based; settings: NCI-H460, 72 h
# HCC827 [20] = assay: Inhibition of colony formation in human HCC827 cells at 0.2 uM incubated for 72 hrs by crystal violet staining based analysis; assay type: functional, cell-based
# HCC827 [21] = assay: Induction of ROS generation in human HCC827 cells assessed as decrease in NADH content at 1 uM incubated for 4 hrs by absorbance based analysis; assay type: functional, cell-based
# [22] = Drug accumulation in mitochondria of human HCC827 cells at 10 uM incubated for 5 mins; assay type: ADME; settings: hcc827, 5 min
# HCC827 [23] = assay: Induction of apoptosis in human HCC827 cells assessed as late apoptotic cells at 1 uM measured after 48 hrs by annexin V and PI staining based flow cytometry analysis (reference value: 1.29%); assay type: functional
# MDA-MB-231 = assay: Antiproliferative activity against human MDA-MB-231 cells assessed as inhibition of cell growth measured after 72 hrs by MTT assay; assay type: functional, cell-based; settings: MDA-MB-231, 72 h
# SK-LU-1 = assay: Antiproliferative activity against human SK-LU-1 cells assessed as inhibition of cell growth measured after 72 hrs by MTT assay; assay type: functional, cell-based; settings: SK-LU-1, 72 h
# HCC827 [24] = assay: Induction of ROS generation in human HCC827 cells assessed as increase in NAD+/NADH ratio at 1 uM incubated for 4 hrs by absorbance based analysis; assay type: functional, cell-based
# [25] = Drug accumulation in mitochondria of human HCC827 cells at 10 uM incubated for 10 mins in presence of CCCP by RP-HPLC-UV analysis; assay type: ADME; settings: hcc827, 10 min
# NCI-H1975 = assay: Antiproliferative activity against human NCI-H1975 cells assessed as inhibition of cell growth measured after 72 hrs by MTT assay; assay type: functional, cell-based; settings: NCI-H1975, 72 h
# A549 = assay: Antiproliferative activity against human A549 cells assessed as inhibition of cell growth measured after 72 hrs by MTT assay; assay type: functional, cell-based; settings: A549, 72 h
# [26] = Antiproliferative activity against HEK293T cells assessed as inhibition of cell growth measured after 72 hrs by MTT assay; assay type: toxicity, cell-based, HEK-293T; settings: human
# HCC827 [27] = assay: Induction of mitochondrial dysfunction in human HCC827 cells assessed as cytochrome C release in cytoplasm at 1 uM measured after 72 hrs by laser scanning confocal fluorescence microscopic analysis; assay type: functional, cell-based
# HCC827 [28] = assay: Induction of apoptosis in human HCC827 cells assessed as early apoptotic cells at 1 uM measured after 48 hrs by annexin V and PI staining based flow cytometry analysis (reference value: 0.70%); assay type: functional
# [29] = Antiproliferative activity against human LO2 cells assessed as inhibition of cell growth measured after 72 hrs by MTT assay; assay type: toxicity, cell-based, L02
# HCC827 [30] = assay: Antiproliferative activity against human HCC827 cells assessed as inhibition of cell growth measured after 72 hrs by MTT assay; assay type: functional, cell-based; settings: HCC827, 72 h
SMILES,Drug uptake [6],Drug metabolism [7],Drug uptake [8],IC50 (MCF7) [nM],IC50 (NCI-H1299) [nM],Activity (HCC827 [9]) [%],IC50 at 72 h [10] [nM],IC50 [11] [nM],Activity (HCC827 [12]) [%],IC50 [13] [nM],IC50 (NCI-H1650) [nM],Activity (Mitochondrial membrane),viability at 1 µM (HCC827 [15]) [%],Activity (HCC827 [16]) [%],IC50 (HCT-116) [nM],IC50 (A-375 [17]) [nM],Activity (HCC827 [18]) [%],IC50 at 72 h [19] [nM],IC50 (NCI-H460) [nM],inhibition (HCC827 [20]),other results
N#CC(C#N)=NNc1cccc(Cl)c1,–,–,–,–,–,–,–,–,–,–,–,–,–,–,–,–,–,–,–,–,Activity (HeLa [1]): Active; Activity (HeLa [2]): Active; Activity (HeLa [3]): Active; Activity (HeLa [4]): Active
CC1=C(C)C(=O)C(CCCCCCCCCC[P+](c2ccccc2)(c2ccccc2)c2ccccc2)=CC1=O,–,–,–,–,–,–,–,–,–,–,–,–,–,–,–,–,–,–,–,–,fold change (FC) [5]: 1.4
N#CC(C#N)=C1C=C(/C=C/c2ccc(OC(=O)OCCCCCCCCCC[P+](c3ccccc3)(c3ccccc3)c3ccccc3)cc2)Oc2ccccc21.[Br-],0.9,metabolite_detected,Active,–,–,–,–,–,–,–,–,–,–,–,–,–,–,–,–,–,–
Cc1ccc([P+](CCCCCCCCCCOC(=O)Oc2ccc(/C=C/C3=CC(=C(C#N)C#N)c4ccccc4O3)cc2)(c2ccc(C)cc2)c2ccc(C)cc2)cc1.[Br-],0.84,metabolite_detected,Active,–,–,–,–,–,–,–,–,–,–,–,–,–,–,–,–,–,–
OCCCCCCCCCC[P+](c1ccccc1)(c1ccccc1)c1ccccc1.[Br-],–,–,–,310,> 5000,0.7,1140,340,19.19,570,710,inactive,94.1,74.82,940,410,6,2380,950,Weak_effect,IC50 (A-375 [14]): 410 nM; Activity (HCC827 [21]): Active; Drug uptake [22]: ~ 90%; Activity (HCC827 [23]): 4.02%; IC50 (MDA-MB-231): 550 nM; IC50 (SK-LU-1): 540 nM; Activity (HCC827 [24]): Active; Drug uptake [25]: Not_active; IC50 (NCI-H1975): 320 nM; IC50 (A549): 1070 nM; IC50 at 72 h [26]: 2790 nM; Activity (HCC827 [27]): inactive; Activity (HCC827 [28]): 2.5%; IC50 at 72 h [29]: 3120 nM; IC50 (HCC827 [30]): 230 nM
OCCCCCCCCCC[P+](c1ccc(C(F)(F)F)cc1)(c1ccc(C(F)(F)F)cc1)c1ccc(C(F)(F)F)cc1.[Br-],–,–,–,6450,> 10000,2.87,6900,> 5000,26.29,5320,1970,inactive,92.1,69.33,7730,5400,4.38,> 40000,3090,Weak_effect,Activity (HCC827 [21]): Active; Drug uptake [22]: 52%; Activity (HCC827 [23]): 2.72%; IC50 (MDA-MB-231): 6290 nM; IC50 (SK-LU-1): > 5000 nM; Activity (HCC827 [24]): Active; Drug uptake [25]: Not_active; IC50 (NCI-H1975): > 5000 nM; IC50 (A549): 6120 nM; IC50 at 72 h [26]: 13800 nM; Activity (HCC827 [27]): inactive; Activity (HCC827 [28]): 1.3%; IC50 at 72 h [29]: > 40000 nM; IC50 (HCC827 [30]): > 5000 nM
